Source: patent US20100035943A1, “Oxa-and thiadiazoles and their use as metalloproteinase inhibitors” (VERNALIS (OXFORD) LTD, priority 2002, published 2010)

Tests used:
[1] = tested on: IL2-induced lymphocyte recruitment; experiment: IL2-induced peritoneal recruitment of lymphocytes; type: in vivo, C3H/HEN mice; details: mice, Subcutaneous route, 15 min prior to IL2, cells counted 24 hours after IL2
Experimental: Administration of IL2 intraperitoneally causes migration of lymphocytes into the intraperitoneal cavity. This is a model for the cellular migration that occurs during inflammation.
C3H/HEN mice (Elevage Janvier, France) were intraperitoneally injected with IL2 (Serono Pharmaceutical Research Institute, 20 μg/kg, in saline). Compounds of the invention were suspended in 0.5% carboxymethylcellulose (CMC)/0.25% tween-20 and were administered by sc or po route (10 ml/kg) 15 min prior to administration of IL2.
Twenty-four hours after administration of IL2, peritoneal white blood cells were collected by 3 successive lavages of the peritoneal cavity with 5 ml phosphate buffered saline (PBS)-1 mM EDTA (+4° C.). The suspension was centrifuged (1700 g×10 min at +4° C.). The resulting pellet was suspended in 1 ml PBS-1 mM EDTA.
Lymphocytes were identified and counted using a Beckman/Coulter counter.
The animals were divided into 5 groups (6 mice each group):
Group 1: (baseline) received 0.5% CMC/0.25% tween-20 (vehicle of compound of the invention) and saline (vehicle of IL2); Group 2: (control IL2) received 0.5% CMC/0.25% tween-20 and injection of IL2; Group 3: Experimental group (Compound of the invention Dose 1) received a compound of the invention and injection of IL2; Group 4: Experimental group (Compound of the invention Dose 2) received a compound of the invention and injection of IL2; Group 5: Experimental group (Compound of the invention Dose 3) received a compound of the invention and injection of IL2; Group 6: Reference group received reference compound dexamethasone and injection of IL2
Inhibition of lymphocyte recruitment was calculated as follows:
Where Ly 1=Number of lymphocytes in group 1 (E3/μl), Ly 2=Number of lymphocytes in group 2 (E3/μl), Ly X=Number of lymphocytes in group X (3-5) (E3/μl)
The dose of compound of the invention required to inhibit lymphocyte recruitment by 50% (ID50) was calculated using a curve-fitting routine.

[2] = target: metalloelastase (MMP12) (Homo sapiens, UniProt P39900); experiment: MMP12 enzyme inhibition assay (fluorogenic peptide substrate McaPLGLDpaAR); type: biochemical; details: protocol as for MMP9 assay
metalloelastase (MMP12), sequence (P39900 106-470): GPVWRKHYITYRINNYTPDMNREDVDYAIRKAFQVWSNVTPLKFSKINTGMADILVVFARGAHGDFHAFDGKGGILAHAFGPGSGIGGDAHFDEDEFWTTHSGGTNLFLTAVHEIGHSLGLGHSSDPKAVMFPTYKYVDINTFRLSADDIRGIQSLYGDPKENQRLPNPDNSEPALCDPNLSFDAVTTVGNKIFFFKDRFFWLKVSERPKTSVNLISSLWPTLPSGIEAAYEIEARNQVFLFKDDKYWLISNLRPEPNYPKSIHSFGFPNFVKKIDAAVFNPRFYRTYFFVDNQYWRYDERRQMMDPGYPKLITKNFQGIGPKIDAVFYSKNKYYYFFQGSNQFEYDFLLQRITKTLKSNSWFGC
Experimental: (§1) Stock solutions were made up as follows: • Assay Buffer: 100 mM Tris-HCl pH 7.6 containing 100 mM NaCl, 10 mM CaCl2, and 0.05% Brij 35 • Substrate: 0.4 mM McaPLGLDpaAR (from Bachem) (0.437 mg/ml) stock solution in 100% DMSO (stored at −20° C.). Dilute to 8 μM in assay buffer. • Enzyme: Recombinant human 92 kDa gelatinase (MMP-9; APMA (4-aminophenyl • mercuric acetate)—activated if necessary) appropriately diluted in assay buffer.
(§2) Test Compounds were prepared initially as 10 mM compound solution in 100% DMSO, diluted to 1 mM in 100% DMSO, then serially diluted 3-fold in 100% DMSO across columns 1-10 of a 96-well microtitre plate Assay concentration range, 100 μM (column 1) to 5.1 nM (column 10)
(§3) The assay was performed in a total volume of 100 μl per well in 96-well microtitre plates. Activated enzyme (20 μl) was added to the wells followed by 20 μl of assay buffer. Appropriate concentrations of test compounds dissolved in 10 μl of DMSO were then added followed by 50 μl of McaPLGLDpaAR (8 μM, prepared by dilution of DMSO stock in assay buffer). For each assay ten concentrations of test compound were examined in duplicate. Control wells lack either enzyme or test compound. The reactions were incubated at 37° C. for 2 hours. The fluorescence at 405 nm was measured immediately with an SLT Fluostar fluorometer (SLT Labinstruments GmbH, Grödig, Austria) using 320 nm excitation, without stopping the reaction.
(§4) The effect of the test compound was determined from the dose response curve generated by the 10 duplicate concentrations of inhibitor. The IC50 (the concentration of compound required to give a 50% decrease in enzyme activity) was obtained by fitting data to the equation, Y=a+((b−a)/(1+(c/X)^d)). (Y=inhibition achieved for a particular dose; X=the dose in nM; a=minimum y or zero % inhibition; b=maximum y or 100% inhibition; c=is the IC50; d=is the slope). The result was rounded to one significant figure.
(§5) Compounds were tested for inhibitory activity against metalloelastase (MMP12) in an assay using a coumarin-labelled peptide substrate, (7-methoxycoumarin-4-yl)acetyl-Pro-Leu-Gly-Leu-(3-[2,4-dinitrophenyl]-L-2,3-diaminopropionyl)-Ala-Arg-NH2 (McaPLGLDpaAR) (Knight et al, FEBS Lett. 1992; 263-266). The protocol for this assay was as described for the MMP9 assay above.

[3] = target: T1, collagenase (MMP1) (Homo sapiens, UniProt P03956); experiment: MMP1 enzyme inhibition assay (fluorogenic peptide substrate McaPLGLDpaAR); type: biochemical; details: protocol as for MMP9 assay
T1 sequence (P03956 100-469): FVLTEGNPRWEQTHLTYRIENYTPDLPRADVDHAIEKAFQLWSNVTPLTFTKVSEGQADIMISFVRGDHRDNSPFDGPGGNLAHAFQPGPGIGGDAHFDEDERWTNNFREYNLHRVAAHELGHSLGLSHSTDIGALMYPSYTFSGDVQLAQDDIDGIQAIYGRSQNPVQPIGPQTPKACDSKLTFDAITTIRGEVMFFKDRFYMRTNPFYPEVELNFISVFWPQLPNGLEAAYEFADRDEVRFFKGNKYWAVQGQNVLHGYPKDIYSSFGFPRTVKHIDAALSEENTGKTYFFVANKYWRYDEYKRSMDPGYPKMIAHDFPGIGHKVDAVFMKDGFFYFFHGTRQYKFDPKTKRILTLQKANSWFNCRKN
Experimental: as §1, §2, §3, §4
as §5, with “• Compounds” for “Compounds”, “collagenase (MMP1)” for “metalloelastase (MMP12)”

[4] = target: 92 kDa gelatinase (MMP9) (Homo sapiens, UniProt P14780); experiment: MMP9 enzyme inhibition assay (fluorogenic peptide substrate McaPLGLDpaAR); type: biochemical; details: recombinant human 92 kDa gelatinase, 37° C., 2 hours
92 kDa gelatinase (MMP9), sequence (P14780 107-707 limits assumed): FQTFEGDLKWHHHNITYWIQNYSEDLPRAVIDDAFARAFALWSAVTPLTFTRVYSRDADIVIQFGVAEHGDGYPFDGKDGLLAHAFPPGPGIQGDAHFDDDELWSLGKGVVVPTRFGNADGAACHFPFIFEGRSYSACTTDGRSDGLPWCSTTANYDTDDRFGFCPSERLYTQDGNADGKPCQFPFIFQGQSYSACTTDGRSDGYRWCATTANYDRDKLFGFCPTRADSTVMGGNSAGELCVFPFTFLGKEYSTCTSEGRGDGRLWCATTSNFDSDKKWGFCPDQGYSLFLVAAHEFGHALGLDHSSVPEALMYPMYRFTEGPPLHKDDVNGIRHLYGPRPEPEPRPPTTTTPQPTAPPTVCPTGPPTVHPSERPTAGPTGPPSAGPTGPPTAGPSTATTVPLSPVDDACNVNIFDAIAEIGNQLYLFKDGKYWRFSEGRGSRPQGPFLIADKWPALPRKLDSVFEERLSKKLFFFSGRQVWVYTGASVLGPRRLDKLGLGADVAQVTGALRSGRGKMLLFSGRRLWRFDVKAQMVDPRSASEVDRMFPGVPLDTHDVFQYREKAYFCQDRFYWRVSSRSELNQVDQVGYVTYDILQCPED
Experimental: Compounds were tested for inhibitory activity against 92 kDa gelatinase (MMP9) in an assay using a coumarin-labelled peptide substrate, (7-methoxycoumarin-4-yl)acetyl-Pro-Leu-Gly-Leu-(3-[2,4-dinitrophenyl]-L-2,3-diaminopropionyl)-Ala-Arg-NH2 (McaPLGLDpaAR) (Knight et al, FEBS Lett. 1992; 263-266).
as §1, §2, §3, §4

Q: Which “ID50 for inhibition of IL2-induced peritoneal recruitment of lymphocytes” value [1] does the source give for CC(C)C[C@@H](C(=O)N[C@H](c1noc(-c2ccco2)n1)C(C)(C)C)[C@H](O)C(=O)NO [Example 5, 2S-Hydroxy-3R-[1S-(5-furan-2-yl-[1,2,4]oxadiazol-3-yl)-2,2-dimethyl-propylcarbamoyl]-5-methyl Hexanohydroxamic Acid] here?
A: The value was 1 mg/kg.

Q: And the IC50 [2]?
A: Its IC50 is less than 100 nM.

Q: What about the IC50 [3] of the same compound?
A: Its IC50 is 100 to 1000 nM.

Q: What about the IC50 [4] of the same compound?
A: The IC50 was 100 to 1000 nM.

Q: Which “ID50 for inhibition of IL2-induced peritoneal recruitment of lymphocytes” value [1] does the source give for C[C@@H]1C[C@H]2[C@@H]3CCC4=CC(=O)C=C[C@]4(C)[C@@]3(F)[C@@H](O)C[C@]2(C)[C@@]1(O)C(=O)CO [dexamethasone, reference compound] here?
A: Its value is 0.05 mg/kg.

Q: What does the source list for CC(C)C[C@@H](C(=O)N[C@H](c1noc(C2CC2)n1)C(C)(C)C)[C@H](O)C(=O)NO [Example 16, 2S-Hydroxy-3R-[1S-(5-cyclopropyl-[1,2,4]oxadiazol-3-yl)-2,2-dimethyl-propylcarbamoyl]-5-methyl Hexanohydroxamic Acid]?
A: IC50 [2]: < 100 nM; IC50 [3]: 100 to 1000 nM; IC50 [4]: 100 to 1000 nM

Q: CC(C)C[C@@H](C(=O)N[C@H](c1noc(Cc2ccccc2)n1)C(C)(C)C)[C@H](O)C(=O)NO [Example 10, 2S-Hydroxy-3R-[1S-(5-benzyl-[1,2,4]oxadiazol-3-yl)-2,2-dimethyl-propylcarbamoyl]-5-methyl Hexanohydroxamic Acid] was tested. Which IC50 [2] did it give?
A: Its IC50 is less than 100 nM.

Q: And the IC50 [3]?
A: Its IC50 is 1000 to 10000 nM.

Q: And the IC50 [4]?
A: The IC50 was 1000 to 10000 nM.

Q: How did the IC50 [2] turn out when CC(C)C[C@@H](C(=O)N[C@H](c1noc(CC(C)(C)C)n1)C(C)(C)C)[C@H](O)C(=O)NO [Example 14, 2S-Hydroxy-3R-[1S-(5-(2,2-dimethyl-propyl)-[1,2,4]oxadiazol-3-yl)-2,2-dimethyl-propylcarbamoyl]-5-methyl Hexanohydroxamic Acid] was run?
A: The IC50 was less than 100 nM.

Q: What about the IC50 [3] of the same compound?
A: Its IC50 is 1000 to 10000 nM.

Q: And the IC50 [4]?
A: The IC50 was 1000 to 10000 nM.

Q: For CC(C)C[C@@H](C(=O)N[C@H](c1noc(C(C)C)n1)C(C)(C)C)[C@H](O)C(=O)NO [Example 4, 2S-Hydroxy-3R-[1S-(5-isopropyl-[1,2,4]oxadiazol-3-yl)-2,2-dimethyl-propylcarbamoyl]-5-methyl Hexanohydroxamic Acid], which IC50 [2] is on record?
A: The IC50 was less than 100 nM.

Q: What about the IC50 [3] of the same compound?
A: The IC50 was 100 to 1000 nM.

Q: What about the IC50 [4] of the same compound?
A: Its IC50 is 100 to 1000 nM.

Q: Which IC50 [2] does the source give for C=CC[C@H](C(=O)NO)[C@@H](CC(C)C)C(=O)N[C@H](c1nc(C)no1)C(C)(C)C [Example 23, 2S-Allyl-3R-[2,2-dimethyl-I S-(3-methyl-[1,2,4]oxadiazol-5-yl)-propylcarbamoyl]-5-methyl-hexanohydroxamic Acid] here?
A: The IC50 was less than 100 nM.

Q: And the IC50 [3]?
A: Its IC50 is 100 to 1000 nM.

Q: And the IC50 [4]?
A: Its IC50 is less than 100 nM.

Q: How did the IC50 [2] turn out when CC(C)C[C@@H](C(=O)N[C@H](c1nc(-c2ccccc2)no1)C(C)C)[C@H](O)C(=O)NO [Example 19, 2S, N1-Dihydroxy-3R-isobutyl-N4-[2-methyl-1S-(3-phenyl-[1,2,4]oxadiazol-5-yl)-propyl]-succinamide] was run?
A: Its IC50 is less than 100 nM.

Q: And the IC50 [3]?
A: Its IC50 is 100 to 1000 nM.

Q: What about the IC50 [4] of the same compound?
A: The IC50 was 100 to 1000 nM.

Q: CC(C)(C)[C@H](NC(=O)[C@H](C/C=C/c1ccccc1)[C@H](O)C(=O)NO)c1nc(-c2ccccc2)no1 [Example 31, N4-[2,2-Dimethyl-1S-(3-phenyl-[1,2,4]oxadiazol-5-yl)-propyl]-2S,N1-dihydroxy-3R-(3-phenyl-allyl)-succinamide] was tested. Which IC50 [2] did it give?
A: Its IC50 is 100 to 1000 nM.

Q: What about the IC50 [3] of the same compound?
A: Its IC50 is greater than 10000 nM.

Q: What about the IC50 [4] of the same compound?
A: The IC50 was greater than 10000 nM.

Q: Which IC50 [2] does the source give for CCOc1ccc(CCC[C@@H](C(=O)N[C@H](c2noc(-c3ccco3)n2)C(C)(C)C)[C@H](O)C(=O)NO)cc1 [Example 35, 2R-[3-(4-Ethoxy-phenyl)-propyl]-N1-[1S-(5-furan-2-yl-[1,2,4]oxadiazol-3-yl)-2,2-dimethyl-propyl]-3S,N4-dihydroxy-succinamide] here?
A: The IC50 was less than 100 nM.

Q: What about the IC50 [3] of the same compound?
A: Its IC50 is greater than 10000 nM.

Q: What about the IC50 [4] of the same compound?
A: The IC50 was less than 100 nM.

Q: What does the source list for CC(C)Cc1nc([C@@H](NC(=O)[C@H](CC(C)C)[C@H](O)C(=O)NO)C(C)(C)C)no1 [Example 11, 2S-Hydroxy-3R-[1S-(5-isobutyl-[1,2,4]oxadiazol-3-yl)-2,2-dimethyl-propylcarbamoyl]-5-methyl Hexanohydroxamic Acid]?
A: IC50 [2]: < 100 nM; IC50 [3]: 1000 to 10000 nM; IC50 [4]: 1000 to 10000 nM

Q: With CC(C)C[C@@H](C(=O)N[C@H](c1nc(-c2ccccc2)no1)C(C)(C)C)[C@H](O)C(=O)NO [Example 2, 3R-[2,2-Dimethyl-1S-(3-phenyl-[1,2,4]oxadiazol-5-yl)-propylcarbamoyl]-2S-hydroxy-5-methyl-hexanohydroxamic Acid] as the compound, how does the IC50 [2] read?
A: Its IC50 is less than 100 nM.

Q: What about the IC50 [3] of the same compound?
A: The IC50 was 100 to 1000 nM.

Q: What about the IC50 [4] of the same compound?
A: Its IC50 is 100 to 1000 nM.

Q: With CC(C)C[C@@H](C(=O)N[C@H](c1nc(C(C)C)no1)C(C)(C)C)[C@H](O)C(=O)NO [Example 18, 2S-Hydroxy-3R-[1S-(3-isopropyl-[1,2,4]oxadiazol-3-yl)-2,2-dimethyl-propylcarbamoyl]-5-methyl Hexanohydroxamic Acid] as the compound, how does the IC50 [2] read?
A: Its IC50 is less than 100 nM.

Q: What about the IC50 [3] of the same compound?
A: Its IC50 is 100 to 1000 nM.

Q: And the IC50 [4]?
A: The IC50 was 100 to 1000 nM.

Q: For CC(C)C[C@@H](C(=O)N[C@H](c1noc(C(C)(C)C)n1)C(C)(C)C)[C@H](O)C(=O)NO [Example 12, 2S-Hydroxy-3R-[1S-(5-tert-butyl-[1,2,4]oxadiazol-3-yl)-2,2-dimethyl-propylcarbamoyl]-5-methyl Hexanohydroxamic Acid], which IC50 [2] is on record?
A: The IC50 was less than 100 nM.

Q: And the IC50 [3]?
A: Its IC50 is 100 to 1000 nM.

Q: What about the IC50 [4] of the same compound?
A: The IC50 was 100 to 1000 nM.

Q: CC(C)C[C@@H](C(=O)N[C@H](c1noc(CC2CCCC2)n1)C(C)(C)C)[C@H](O)C(=O)NO [Example 6, 2S-Hydroxy-3R-[1S-(5-cyclopentylmethyl-[1,2,4]oxadiazol-3-yl)-2,2-dimethyl-propylcarbamoyl]-5-methyl Hexanohydroxamic Acid] was tested. Which IC50 [2] did it give?
A: The IC50 was less than 100 nM.

Q: And the IC50 [3]?
A: Its IC50 is 100 to 1000 nM.

Q: And the IC50 [4]?
A: The IC50 was 1000 to 10000 nM.
